Experimental data: patent US20110118262A1, “Pyrrolidinyl and Piperidinyl Compounds Useful as NHE-1 Inhibitiors” (BOEHRINGER INGELHEIM INTERNATIONAL GMBH, priority 2008, published 2011)

Molecular target: T1, NHE-1 (Homo sapiens, UniProt P19634)
T1 construct: endogenous in cells; host or cells: HT-29
Assay: Evaluation of NHE-1 Inhibition (pHi) in HT-29 cells
Assay type: cell-based
Conditions: BCECF dye, 50% inhibition of the intracellular pH recovery, read-out: NHE1 HT29 pHi IC50
Procedure, shortened: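 Intracellular pH measured with BCECF in HT-29 cells after 24 h culture. Cells dye-loaded 30 min at 37° C, then acid-loaded with NH4Cl-containing choline buffer (pH 7.5) for 30 min at RT. Compounds added on an FDSS6000 fluorescence reader.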

T1 sequence (P19634 whole entry): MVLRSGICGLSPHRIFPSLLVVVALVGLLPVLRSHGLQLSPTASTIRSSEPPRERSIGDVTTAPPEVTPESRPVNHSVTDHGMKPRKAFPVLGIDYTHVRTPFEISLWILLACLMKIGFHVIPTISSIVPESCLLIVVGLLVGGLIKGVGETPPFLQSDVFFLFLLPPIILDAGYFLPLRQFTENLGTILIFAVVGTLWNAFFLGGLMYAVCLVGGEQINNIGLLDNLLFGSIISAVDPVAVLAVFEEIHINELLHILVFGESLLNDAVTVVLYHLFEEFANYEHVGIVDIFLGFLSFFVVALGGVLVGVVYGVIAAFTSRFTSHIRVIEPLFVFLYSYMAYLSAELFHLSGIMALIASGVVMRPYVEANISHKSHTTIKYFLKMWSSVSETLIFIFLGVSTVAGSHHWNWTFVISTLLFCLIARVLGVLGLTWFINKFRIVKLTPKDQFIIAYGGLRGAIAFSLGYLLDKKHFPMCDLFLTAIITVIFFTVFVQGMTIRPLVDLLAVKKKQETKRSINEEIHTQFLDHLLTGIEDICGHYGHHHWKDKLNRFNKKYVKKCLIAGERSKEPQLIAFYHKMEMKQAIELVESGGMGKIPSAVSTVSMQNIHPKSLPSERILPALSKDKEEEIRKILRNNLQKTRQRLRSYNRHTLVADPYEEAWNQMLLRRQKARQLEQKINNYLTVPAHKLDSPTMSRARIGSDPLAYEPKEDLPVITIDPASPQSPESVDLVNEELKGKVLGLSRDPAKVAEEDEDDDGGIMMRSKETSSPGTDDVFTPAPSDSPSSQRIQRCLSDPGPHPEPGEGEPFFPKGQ

| SMILES | IC50 |
| --- | --- |
| Cn1cccc1C(=O)N1CCC(c2ccc(C(=O)NC(=N)N)cc2C(F)(F)F)CC1 [N-{4-[1-(1-Methyl-1H-pyrrole-2-carbonyl)-piperidin-4-yl]-3-trifluoromethyl-benzoyl}-guanidine] | 79 nM |
| N=C(N)NC(=O)c1ccc(C2CCN(C(=O)C3CCN(c4ncccn4)CC3)CC2)c(C(F)(F)F)c1 [N-{4-[1-(1-Pyrimidin-2-yl-piperidine-4-carbonyl)-piperidin-4-yl]-3-trifluoromethyl-benzoyl}-guanidine] | 70 nM |
| Cc1cc(C2CCN(C(=O)c3cc4ccccc4[nH]3)CC2)c(C(F)(F)F)cc1C(=O)NC(=N)N [N-{4-[1-(1H-Indole-2-carbonyl)-piperidin-4-yl]-2-methyl-5-trifluoromethyl-benzoyl}-guanidine] | 290 nM |
| Cc1cc(C2CCN(C(=O)c3ccc4[nH]ccc4c3)CC2)c(C(F)(F)F)cc1C(=O)NC(=N)N [N-{4-[1-(1H-Indole-5-carbonyl)-piperidin-4-yl]-2-methyl-5-trifluoromethyl-benzoyl}-guanidine] | 47 nM |
| N=C(N)NC(=O)c1ccc(C2CCN(C(=O)c3ccc[nH]3)CC2)cc1 [N-{4-[1-(1H-Pyrrole-2-carbonyl)-piperidin-4-yl]-benzoyl}-guanidine] | 385 nM |
| CC(C)(C)C(=O)N1CCC(c2ccc(C(=O)NC(=N)N)cc2C(F)(F)F)CC1 [N-{4-[1-(2,2-Dimethyl-propionyl)-piperidin-4-yl]-3-trifluoromethyl-benzoyl}-guanidine] | 68 nM |
| N=C(N)NC(=O)c1ccc(C2CCN(C(=O)c3ccc4c(c3)OCCO4)CC2)c(C(F)(F)F)c1 [N-{4-[1-(2,3-Dihydro-benzo[1,4]dioxine-6-carbonyl)-piperidin-4-yl]-3-trifluoromethyl-benzoyl}-guanidine] | 130 nM |

The remaining molecules from weak to strong by IC50, led by results:

| IC50 | SMILES |
| --- | --- |
| 46 nM | N=C(N)NC(=O)c1ccc(C2CCN(C(=O)c3ccc[nH]3)CC2)c(C(F)(F)F)c1 [N-{4-[1-(1H-Pyrrole-2-carbonyl)-piperidin-4-yl]-3-trifluoromethyl-benzoyl}-guanidine] |
| 23 nM | N=C(N)NC(=O)c1ccc(C2CCN(C(=O)c3ccc4c(c3)CCO4)CC2)c(C(F)(F)F)c1 [N-{4-[1-(2,3-Dihydro-benzofuran-5-carbonyl)-piperidin-4-yl]-3-trifluoromethyl-benzoyl}-guanidine] |
| 19 nM | N=C(N)NC(=O)c1ccc(C2CCN(C(=O)c3ccc[nH]3)C2)c(C(F)(F)F)c1 (stereo not shown) [N-{4-[1-(1H-Pyrrole-2-carbonyl)-pyrrolidin-3-yl]-3-trifluoromethyl-benzoyl}-guanidine] |
| 18 nM | N=C(N)NC(=O)c1ccc(C2CCN(C(=O)C3(N)CCc4ccccc43)CC2)c(C(F)(F)F)c1 (stereo not shown) [N-{4-[1-(1-Amino-indane-1-carbonyl)-piperidin-4-yl]-3-trifluoromethyl-benzoyl}-guanidine] |
| 15 nM | Cn1ccnc1C(=O)N1CCC(c2ccc(C(=O)NC(=N)N)cc2C(F)(F)F)CC1 [N-{4-[1-(1-Methyl-1H-imidazole-2-carbonyl)-piperidin-4-yl]-3-trifluoromethyl-benzoyl}-guanidine] |
| 10 nM | CN1CCCC(C(=O)N2CCC(c3ccc(C(=O)NC(=N)N)cc3C(F)(F)F)CC2)C1 (stereo not shown) [N-{4-[1-(1-Methyl-piperidine-3-carbonyl)-piperidin-4-yl]-3-trifluoromethyl-benzoyl}-guanidine] |
| 4 nM | Cc1cc(C2CCN(C(=O)c3ncc[nH]3)CC2)c(C(F)(F)F)cc1C(=O)NC(=N)N [N-{4-[1-(1H-Imidazole-2-carbonyl)-piperidin-4-yl]-2-methyl-5-trifluoromethyl-benzoyl}-guanidine] |
| 2 nM | N=C(N)NC(=O)c1ccc(C2CCN(C(=O)C3(N)CCCC3)CC2)c(C(F)(F)F)c1 [N-{4-[1-(1-Amino-cyclopentanecarbonyl)-piperidin-4-yl]-3-trifluoromethyl-benzoyl}-guanidine] |
| 0.3 nM | CN1CCC(C(=O)N2CCC(c3ccc(C(=O)NC(=N)N)cc3C(F)(F)F)CC2)CC1 [N-{4-[1-(1-Methyl-piperidine-4-carbonyl)-piperidin-4-yl]-3-trifluoromethyl-benzoyl}-guanidine] |
